In patent US10730887B2, “Compound containing tricyclic heteroaryl group” (Hangzhou Innogate Pharma Co., Ltd., priority 2016, dated 2020):
pIC50: −log10 of the molar value.

How the values were obtained:
Assay type in all cases: biochemical
EGFR = EGFR (Homo sapiens, UniProt P00533); assay: EGFR kinase activity inhibition, Caliper mobility shift assay
Description: (§1) EGFR and EGFR (T790M/L858R) protein kinase activities were determined using the Caliper mobility shift assay. The compound was dissolved in DMSO and diluted with kinase buffer (EGFR (T790M/L858R): 50 mM HEPES at pH 7.5, 0.0015% Brij-35, 10 mM MgCl2, 2 mM DTT; EGFR: pH 7.5 50 mM HEPES, 0.0015% Brij-35, 10 mM MgCl2, 10 mM MnCl2, 2 mM DTT), 5 μL of 5 times the final concentration of the compound (10% DMSO) was added to a 384-well plate. Add 10 μL of 2.5-fold enzyme (using EGFR and EGFR (1790M/L858R), respectively) and incubate for 10 minutes at room temperature, then add 10 μL of 2.5-fold substrate (Peptide FAM-P22 and ATP) solution. After incubation at 28° C. for 60 minutes, the reaction was stopped by adding 25 μL of stop solution (100 mM HEPES, 0.015% Brij-35, 0.2% Coating Reagent #3, 50 mM EDTA, pH 7.5). Conversion rate data was read on a Caliper EZ Reader II (Caliper Life Sciences). The conversion rate was converted into inhibition rate data (% inhibition rate=(max−conversion rate)/(max−min)*100). Where max is the conversion of the DMSO control and min is the conversion of the enzyme-free control Curves were plotted with compound concentration and inhibition rate on the horizontal and vertical coordinates, and the curve was fitted using XLFit excel add-in version 4.3.1 software and IC50 was calculated.

EGFR (T790M/L858R) = EGFR (T790M/L858R) (Homo sapiens, UniProt P00533, L858R/T790M); assay: EGFR (T790M/L858R) kinase activity inhibition, Caliper mobility shift assay
Sequence of EGFR (T790M/L858R) (P00533 25-1210 T790M/L858R): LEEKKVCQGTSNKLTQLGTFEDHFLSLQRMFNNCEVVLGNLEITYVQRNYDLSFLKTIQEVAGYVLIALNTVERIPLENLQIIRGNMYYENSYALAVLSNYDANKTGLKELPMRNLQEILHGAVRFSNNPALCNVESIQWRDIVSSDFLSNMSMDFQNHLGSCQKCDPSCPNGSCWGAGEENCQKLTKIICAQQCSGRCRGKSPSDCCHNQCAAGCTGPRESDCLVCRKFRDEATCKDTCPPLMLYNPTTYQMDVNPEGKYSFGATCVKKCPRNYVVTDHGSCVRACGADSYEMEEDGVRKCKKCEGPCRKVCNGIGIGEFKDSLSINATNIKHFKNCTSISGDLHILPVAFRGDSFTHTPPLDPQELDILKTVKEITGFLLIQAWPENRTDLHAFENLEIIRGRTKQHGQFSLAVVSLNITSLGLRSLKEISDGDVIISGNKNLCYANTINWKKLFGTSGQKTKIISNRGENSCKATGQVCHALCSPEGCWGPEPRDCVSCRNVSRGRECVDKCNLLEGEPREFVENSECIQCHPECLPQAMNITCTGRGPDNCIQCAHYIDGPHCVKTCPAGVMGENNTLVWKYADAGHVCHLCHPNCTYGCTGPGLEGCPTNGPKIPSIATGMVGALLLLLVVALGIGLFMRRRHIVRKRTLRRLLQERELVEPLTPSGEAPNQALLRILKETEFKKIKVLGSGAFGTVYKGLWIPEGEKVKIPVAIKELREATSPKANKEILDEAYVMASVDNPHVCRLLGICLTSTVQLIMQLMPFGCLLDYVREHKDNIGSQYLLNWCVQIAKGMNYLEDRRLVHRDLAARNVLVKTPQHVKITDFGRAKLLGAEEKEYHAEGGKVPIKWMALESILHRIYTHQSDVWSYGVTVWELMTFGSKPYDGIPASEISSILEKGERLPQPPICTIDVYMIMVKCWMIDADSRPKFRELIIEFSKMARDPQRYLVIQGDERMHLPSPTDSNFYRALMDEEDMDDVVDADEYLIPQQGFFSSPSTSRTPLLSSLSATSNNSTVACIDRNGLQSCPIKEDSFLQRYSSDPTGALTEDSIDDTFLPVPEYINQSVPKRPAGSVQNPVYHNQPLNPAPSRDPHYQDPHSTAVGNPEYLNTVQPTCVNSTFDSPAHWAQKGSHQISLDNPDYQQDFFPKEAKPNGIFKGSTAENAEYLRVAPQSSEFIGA
Description: as §1

SYK = SYK (Homo sapiens, UniProt P43405); assay: Syk kinase activity inhibition, Caliper mobility shift assay
Description: SYK protein kinase activity was determined using the Caliper mobility shift assay. The compound was dissolved in DMSO and diluted with kinase buffer (20 mM HEPES, 0.01% Triton X-100, 5 mM MgCl2, 1 mM MnCl2, 2 mM DTT), and 5 μL of 5 times final concentration was added to the 384-well plate Compound (10% DMSO). After adding 10 μL of 2.5-fold enzyme (with SYK) solution, incubate for 10 minutes at room temperature, and then add 10 μL of 2.5-fold substrate (Peptide FAM-P22 and ATP) solution. Incubate at 28° C. for 30 minutes, then stop the reaction by adding 25 μL of stop solution (100 mM HEPES, 0.015% Brij-35, 0.2% Coating Reagent #13, 50 mM EDTA, pH 7.5). Conversion rate data was read on a Caliper EZ Reader II (Caliper Life Sciences) The conversion rate was converted into inhibition rate data (% inhibition rate=(max−conversion rate)/(max−min)*100). Where max is the conversion of the DMSO control and min is the conversion of the enzyme-free control. Curves were plotted with compound concentration and inhibition rate on the horizontal and vertical coordinates, and the curve was fitted using XLFit excel add-in version 4.3.1 software and IC50 was calculated.

Jak2 = Jak2 (Homo sapiens, UniProt O60674); assay: Jak2 kinase activity inhibition, Caliper Reader
Sequence of Jak2 (O60674 whole entry, species assumed): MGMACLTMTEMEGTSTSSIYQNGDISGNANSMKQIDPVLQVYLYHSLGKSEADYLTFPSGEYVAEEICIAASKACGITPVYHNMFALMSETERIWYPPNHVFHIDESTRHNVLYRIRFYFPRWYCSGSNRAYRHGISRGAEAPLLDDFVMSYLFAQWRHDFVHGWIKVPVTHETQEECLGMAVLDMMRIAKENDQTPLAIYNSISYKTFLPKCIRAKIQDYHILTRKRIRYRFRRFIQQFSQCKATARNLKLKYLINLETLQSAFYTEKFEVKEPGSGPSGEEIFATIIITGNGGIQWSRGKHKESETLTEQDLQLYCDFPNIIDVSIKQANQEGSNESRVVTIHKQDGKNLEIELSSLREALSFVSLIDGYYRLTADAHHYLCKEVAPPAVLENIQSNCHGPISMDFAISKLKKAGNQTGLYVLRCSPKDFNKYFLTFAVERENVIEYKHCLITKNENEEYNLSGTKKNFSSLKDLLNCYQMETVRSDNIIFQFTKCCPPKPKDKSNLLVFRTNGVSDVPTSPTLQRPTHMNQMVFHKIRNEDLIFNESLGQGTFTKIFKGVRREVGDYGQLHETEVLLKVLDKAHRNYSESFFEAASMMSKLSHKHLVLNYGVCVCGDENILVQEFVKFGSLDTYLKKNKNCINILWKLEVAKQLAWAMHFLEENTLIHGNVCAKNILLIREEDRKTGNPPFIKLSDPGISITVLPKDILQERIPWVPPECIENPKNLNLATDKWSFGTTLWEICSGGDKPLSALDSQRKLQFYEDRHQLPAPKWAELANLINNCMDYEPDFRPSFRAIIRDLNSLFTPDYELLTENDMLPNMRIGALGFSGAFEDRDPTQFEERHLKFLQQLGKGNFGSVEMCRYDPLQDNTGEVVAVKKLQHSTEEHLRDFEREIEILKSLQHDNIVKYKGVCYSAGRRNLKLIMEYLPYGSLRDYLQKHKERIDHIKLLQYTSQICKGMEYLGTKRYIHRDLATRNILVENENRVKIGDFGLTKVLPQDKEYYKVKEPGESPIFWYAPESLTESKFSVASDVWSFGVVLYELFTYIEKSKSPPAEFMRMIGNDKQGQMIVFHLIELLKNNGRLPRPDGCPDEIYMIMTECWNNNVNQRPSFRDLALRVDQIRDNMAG
Description: Kinase JAk1 and Jak2 enzyme inhibition IC50 evaluation experiments: The buffer was configured with the following components: 50 mM HEPES, pH 7.5, 0.00015% Brij-35. Compounds were placed in a concentration gradient in 100% DMSO and diluted to 10% DMSO with buffer and added to 384 well plates. For example, when the initial concentration of the compound is […], it is made into 12.5 μM with 100% DMSO, and diluted by 5 or 6 concentrations, and then diluted 10-fold with buffer to prepare an intermediate dilution of the compound containing 10% DMSO. Transfer 5 μL, to 384-well plate. The Jak1 and Jak2 enzymes were diluted to the optimal concentration with the following buffer: 50 mM HEPES, pH 7.5, 0.00015% Brij-35, 2 mM DTT. Transfer 10 μL to a 384-well plate and incubate with the compound for 10-15 minutes. The substrate was diluted to the optimal concentration with the following buffer: 50 mM HEPES, pH 7.5, 0.00015% Brij-35, 10 mM MgCl2, adenosine triphosphate at Km. The reaction was initiated by adding 10 μL to a 384-well plate and reacted at 28° C. for 1 hour. The conversion rate was then read using a Caliper Reader and the inhibition rate was calculated. The formula is as follows: Percent inhibition=(max−conversion)/(max−min)*100. Where max is the conversion of the DMSO control and min is the conversion of the enzyme-free control. Fit the IC50 value with XLFit excel add-in version 5.4.0.8. Fitting formula: Y=Bottom+(Top−Bottom)/(1+(IC50/X)^HillSlope).

FLT3 = target: T1, FLT3 (Homo sapiens, UniProt P36888); assay: FLT3 kinase activity inhibition, Caliper mobility shift assay
T1 sequence (P36888 27-993): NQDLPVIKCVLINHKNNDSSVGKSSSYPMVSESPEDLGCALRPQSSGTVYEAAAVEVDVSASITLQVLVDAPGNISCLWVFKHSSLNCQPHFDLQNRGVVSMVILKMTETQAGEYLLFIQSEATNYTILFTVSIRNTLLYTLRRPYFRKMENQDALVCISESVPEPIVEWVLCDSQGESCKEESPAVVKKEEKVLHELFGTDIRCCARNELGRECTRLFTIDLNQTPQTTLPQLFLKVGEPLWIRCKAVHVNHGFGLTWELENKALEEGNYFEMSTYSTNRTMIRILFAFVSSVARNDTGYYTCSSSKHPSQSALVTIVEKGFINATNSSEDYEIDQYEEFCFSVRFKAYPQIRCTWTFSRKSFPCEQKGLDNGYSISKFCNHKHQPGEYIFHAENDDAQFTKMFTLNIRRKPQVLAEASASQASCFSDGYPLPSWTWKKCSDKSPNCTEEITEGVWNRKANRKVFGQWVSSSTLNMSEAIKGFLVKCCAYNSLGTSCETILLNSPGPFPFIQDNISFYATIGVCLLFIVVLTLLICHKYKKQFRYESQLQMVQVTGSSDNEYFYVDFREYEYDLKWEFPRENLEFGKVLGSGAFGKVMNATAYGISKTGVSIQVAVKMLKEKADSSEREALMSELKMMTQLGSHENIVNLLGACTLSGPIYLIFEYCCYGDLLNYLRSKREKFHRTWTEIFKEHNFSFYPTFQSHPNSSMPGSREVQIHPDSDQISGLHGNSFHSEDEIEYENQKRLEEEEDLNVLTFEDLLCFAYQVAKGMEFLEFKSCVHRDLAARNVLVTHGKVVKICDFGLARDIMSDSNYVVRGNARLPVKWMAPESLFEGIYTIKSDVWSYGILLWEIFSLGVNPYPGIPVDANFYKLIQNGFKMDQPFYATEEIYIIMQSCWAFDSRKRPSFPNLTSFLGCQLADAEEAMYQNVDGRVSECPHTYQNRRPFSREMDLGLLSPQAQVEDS
Description: FLT3 protein kinase activity was measured using the Caliper mobility shift assay. The compound was dissolved in DMSO and diluted with a kinase buffer (50 mM HEPES, pH 7.5, 0.0015% Brij-35, 2 mM DTT), and 5 μL of a 5-fold final concentration of the compound (10% DMSO) was added to a 384-well plate. After adding 10 μL of 2.5-fold FLT3 enzyme solution, incubate for 10 minutes at room temperature, and then add 10 μL of a 2.5-fold substrate (FAM-labeled polypeptide and ATP) solution. After incubation at 28° C. for 60 minutes, the reaction was stopped by adding 25 μL of stop solution (100 mM HEPES, 0.015% Brij-35, 0.2% Coating Reagent #3, 50 mM EDTA, pH 7.5). Conversion rate data was read on a Caliper EZ Reader II (Caliper Life Sciences). The conversion rate was converted into inhibition rate data (% inhibition rate=(max−conversion rate)/(max−min)*100). Where max is the conversion of the DMSO control and min is the conversion of the enzyme-free control Curves were plotted with compound concentration and inhibition rate on the horizontal and vertical coordinates, and the curve was fitted using XLFit excel add-in version 4.3.1 software and IC50 was calculated.

Sequence of EGFR (P00533 25-1210): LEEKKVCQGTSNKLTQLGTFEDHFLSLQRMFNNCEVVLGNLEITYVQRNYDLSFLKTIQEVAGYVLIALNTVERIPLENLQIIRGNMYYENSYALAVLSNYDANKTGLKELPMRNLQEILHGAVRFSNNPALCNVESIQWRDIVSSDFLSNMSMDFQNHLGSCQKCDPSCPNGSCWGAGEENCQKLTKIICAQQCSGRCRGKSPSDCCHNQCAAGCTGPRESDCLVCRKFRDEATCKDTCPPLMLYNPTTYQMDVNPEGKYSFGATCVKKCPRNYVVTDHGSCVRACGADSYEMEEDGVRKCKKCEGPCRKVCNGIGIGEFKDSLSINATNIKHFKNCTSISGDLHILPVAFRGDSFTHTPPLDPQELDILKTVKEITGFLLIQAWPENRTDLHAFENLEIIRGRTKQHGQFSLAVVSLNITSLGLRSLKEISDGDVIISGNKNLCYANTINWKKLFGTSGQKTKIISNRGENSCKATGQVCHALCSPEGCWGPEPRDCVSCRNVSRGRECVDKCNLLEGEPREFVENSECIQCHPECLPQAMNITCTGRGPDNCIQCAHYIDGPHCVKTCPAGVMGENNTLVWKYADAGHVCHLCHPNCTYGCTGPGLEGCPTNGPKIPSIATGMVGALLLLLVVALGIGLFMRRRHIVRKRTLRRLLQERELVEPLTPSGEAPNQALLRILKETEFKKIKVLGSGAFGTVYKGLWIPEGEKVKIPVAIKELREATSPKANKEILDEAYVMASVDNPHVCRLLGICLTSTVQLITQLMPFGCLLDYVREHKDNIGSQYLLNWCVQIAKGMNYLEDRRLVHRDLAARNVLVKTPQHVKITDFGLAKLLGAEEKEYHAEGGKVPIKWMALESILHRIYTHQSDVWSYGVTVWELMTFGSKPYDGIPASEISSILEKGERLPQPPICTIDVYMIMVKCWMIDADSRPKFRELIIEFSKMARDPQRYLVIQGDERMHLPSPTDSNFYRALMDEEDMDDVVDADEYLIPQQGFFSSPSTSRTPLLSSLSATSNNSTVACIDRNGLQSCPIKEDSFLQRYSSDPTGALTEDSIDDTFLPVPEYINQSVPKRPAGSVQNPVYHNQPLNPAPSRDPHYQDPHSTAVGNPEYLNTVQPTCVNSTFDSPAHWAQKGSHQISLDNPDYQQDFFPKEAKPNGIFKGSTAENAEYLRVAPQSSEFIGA

| SMILES | pIC50 (EGFR) | pIC50 (EGFR (T790M/L858R)) | pIC50 (SYK) | pIC50 (Jak2) | pIC50 (FLT3) |
| --- | --- | --- | --- | --- | --- |
| C=CC(=O)Nc1cccc(Nc2nc(Nc3ccc4c(c3)OC[C@H]3CNCCN43)ncc2C(F)(F)F)c1 [Compound A3R] | > 7.30 | > 9.00 |  |  |  |
| C=CC(=O)Nc1cccc(Nc2nc(Nc3ccc4c(c3)OC[C@@H]3CNCCN43)ncc2C(F)(F)F)c1 [Compound A3S] |  | > 9.00 |  |  |  |
| C=CC(=O)Nc1cccc(Nc2nc(Nc3ccc4c(c3)OC[C@H]3COCCN43)ncc2C(F)(F)F)c1 [Compound A8R] | > 7.00 | > 8.00 |  |  |  |
| C=CC(=O)Nc1cccc(Nc2nc(Nc3ccc4c(c3)OC[C@H]3CN(C)CC(=O)N43)ncc2C(F)(F)F)c1 [Compound A9R] | > 7.00 | > 8.00 |  |  |  |
| C=CC(=O)Nc1cccc(Nc2nc(Nc3ccc4c(c3)OC[C@@H]3CN(C)CC(=O)N43)ncc2C(F)(F)F)c1 [Compound A9S] | > 7.00 | > 8.00 |  |  |  |
| CC(C)(C)OC(=O)N1CCN2c3ccc(Nc4ncc(C(N)=O)c(NC5CC5)n4)cc3OC[C@H]2C1 [Compound C7R] |  |  | > 7.30 | > 7.30 |  |
| NC(=O)c1cnc(Nc2ccc3c(c2)OC[C@H]2CNCCN32)nc1NC1CC1 [Compound C8R] |  |  | > 7.30 | > 8.00 |  |
| NC(=O)c1cnc(Nc2ccc3c(c2)OC[C@H]2CN(S(=O)(=O)c4ccccc4)CCN32)nc1NC1CC1 [Compound C9R] |  |  | > 8.00 | > 7.30 |  |
| CS(=O)(=O)N1CCN2c3ccc(Nc4ncc(C(N)=O)c(NC5CC5)n4)cc3OC[C@H]2C1 [Compound C11R] |  |  | > 8.00 | > 8.00 |  |
| CC(C)S(=O)(=O)N1CCN2c3ccc(Nc4ncc(C(N)=O)c(NC5CC5)n4)cc3OC[C@H]2C1 [Compound C12R] |  |  | > 8.00 | > 8.00 |  |
| NC(=O)c1cnc(Nc2ccc3c(c2)OC[C@H]2CN(S(=O)(=O)C4CCOCC4)CCN32)nc1NC1CC1 [Compound C13R] |  |  | > 8.00 | > 8.00 |  |
| CN(C)S(=O)(=O)N1CCN2c3ccc(Nc4ncc(C(N)=O)c(NC5CC5)n4)cc3OC[C@H]2C1 [Compound C14R] |  |  | > 8.00 | > 8.00 |  |
| C=CS(=O)(=O)N1CCN2c3ccc(Nc4ncc(C(N)=O)c(NC5CC5)n4)cc3OC[C@H]2C1 [Compound C15R] |  |  | > 7.30 | > 7.30 |  |
| NC(=O)c1cnc(Nc2ccc3c(c2)OC[C@H]2CN(S(N)(=O)=O)CCN32)nc1NC1CC1 [Compound C16R] |  |  | > 7.30 | > 7.30 |  |
| CN1CCN2c3ccc(Nc4ncc(C(N)=O)c(NC5CC5)n4)cc3C(=O)CC2C1 (centres unmarked) [Compound C17] |  |  | > 7.30 | > 7.30 |  |
| NC(=O)c1cnc(Nc2ccc3c(c2)OCC2COCCN32)nc1NC1CC1 (centres unmarked) [Compound C18R] |  |  | > 7.30 | > 7.30 |  |
| CCc1nc(C(N)=O)c(Nc2ccc3c(c2)OC[C@H]2COCCN32)nc1NC1CCOCC1 [Compound D2R] |  |  |  |  | > 8.00 |
| CCc1nc(C(N)=O)c(Nc2ccc3c(c2)OC[C@@H]2COCCN32)nc1NC1CCOCC1 [Compound D2S] |  |  |  |  | > 8.00 |

Other lines, results leading:

| pIC50 (EGFR) | pIC50 (EGFR (T790M/L858R)) | pIC50 (SYK) | pIC50 (Jak2) | pIC50 (FLT3) | SMILES |
| --- | --- | --- | --- | --- | --- |
| > 7.00 | > 9.00 |  |  |  | C=CC(=O)Nc1cccc(Nc2nc(Nc3ccc4c(c3)OC[C@H]3CN(C)CCN43)ncc2C(F)(F)F)c1 [Compound A1R] |
| > 7.00 | > 9.00 |  |  |  | C=CC(=O)Nc1cccc(Nc2nc(Nc3ccc4c(c3)OC[C@@H]3CN(C)CCN43)ncc2C(F)(F)F)c1 [Compound A1S] |
| > 7.00 | > 8.00 |  |  |  | C=CC(=O)Nc1cccc(Nc2nc(Nc3ccc4c(c3)OCC3CN(C)CCN43)ncc2C(F)(F)F)c1 (centres unmarked) [Compound A1] |
| > 7.00 | > 8.00 |  |  |  | C=CC(=O)Nc1cccc(Nc2nc(Nc3ccc4c(c3)OC[C@H]3CN(C(C)=O)CCN43)ncc2C(F)(F)F)c1 [Compound A2R] |
| > 7.00 | > 8.00 |  |  |  | C=CC(=O)Nc1cccc(Nc2nc(Nc3ccc4c(c3)OC[C@@H]3CN(C(C)=O)CCN43)ncc2C(F)(F)F)c1 [Compound A2S] |
| > 7.00 | > 8.00 |  |  |  | C=CC(=O)Nc1cccc(Nc2nc(Nc3ccc4c(c3)OC[C@H]3CN(C(=O)C(F)(F)F)CCN43)ncc2C(F)(F)F)c1 [Compound A4R] |
| > 7.00 | > 9.00 |  |  |  | C=CC(=O)Nc1cccc(Nc2nc(Nc3ccc4c(c3)OC[C@H]3CN(CC)CCN43)ncc2C(F)(F)F)c1 [Compound A5R] |
| > 7.00 | > 8.00 |  |  |  | C=CC(=O)Nc1cccc(Nc2nc(Nc3ccc4c(c3)OC[C@H]3CN(C5CC5)CCN43)ncc2C(F)(F)F)c1 [Compound A6R] |
| > 6.30 | > 7.30 |  |  |  | C=CC(=O)Nc1cccc(Nc2nc(Nc3ccc4c(c3)OC[C@H]3CN(CC(F)(F)F)CCN43)ncc2C(F)(F)F)c1 [Compound A7R] |
| > 7.00 | > 8.00 |  |  |  | C=CC(=O)Nc1cccc(Nc2nc(Nc3ccc4c(c3)OC[C@@H]3COCCN43)ncc2C(F)(F)F)c1 [Compound A8S] |
